Reference: ChEMBL document CHEMBL6115017, “Discovery of DFV890, a Potent Sulfonimidamide-Containing NLRP3 Inflammasome Inhibitor” (J Med Chem, 2025)
Values after ≈ are worked out from the molar mass of the structure shown. Active and inactive are the calls of the source. No cut-off for these calls is given here.

What was measured:
[1] = Metabolic stability in human hepatocytes assessed as intrinsic clearance measured per 10^6 cells; assay type: ADME, cell-based, Hepatocyte; settings: read-out: CLH
[2] = Metabolic stability in rat hepatocytes assessed as intrinsic clearance measured per 10^6 cells; assay type: ADME, cell-based, Hepatocyte; settings: read-out: CLH
[3] = Metabolic stability in mouse hepatocytes assessed as intrinsic clearance measured per 10^6 cells; assay type: ADME, cell-based, Hepatocyte; settings: read-out: CLH
[4] = Oral bioavailability in C57 BL6 mouse at 10 mg/kg administrated through oral gavage by LC-MS analysis; assay type: ADME, organism-based; settings: in vivo
Cytochrome P450 3A4 = Cytochrome P450 3A4 (Homo sapiens, UniProt P08684); assay: Inhibition of CYP3A4 (unknown origin); assay type: ADME
[5] = Thermodynamic solubility in PBS at pH 1; assay type: physicochemical; settings: read-out: Therm_solubility
[6] = Half life in Sprague-Dawley rat at 5 mg/kg, po by LC-MS analysis; assay type: ADME, organism-based; settings: in vivo
[7] = Cmax in Cynomolgus monkey at 5 mg/kg, po by LC-MS analysis; assay type: ADME, organism-based, Macaca fascicularis; settings: in vivo
[8] = Fraction unbound in Sprague-Dawley rat plasma; assay type: ADME, cell-free
[9] = Fraction unbound in human plasma; assay type: ADME, cell-free
[10] = molecular target: Voltage-gated inwardly rectifying potassium channel KCNH2 (Homo sapiens, UniProt Q12809); assay: Inhibition of hERG; assay type: toxicity
THP-1 = assay: Antagonist activity against […] in PMA-primed human THP-1 cells assessed as inhibition of PrgI-induced IL-1beta release measured pretreated for 1 hr followed by induced with LFn-PrgI measured after 2 hr incubation by HTRF analysis; assay type: cell-based; settings: time 3.0 hrs
[11] = Oral bioavailability in Beagle dog at 2 mg/kg administrated through oral gavage by LC-MS analysis; assay type: ADME, organism-based, Canis lupus familiaris; settings: in vivo
[12] = Cmax in Sprague-Dawley rat at 5 mg/kg, po by LC-MS analysis; assay type: ADME, organism-based; settings: in vivo
Cytochrome P450 2B6 [13] = molecular target: T1, Cytochrome P450 2B6 (Homo sapiens, UniProt P20813); assay: Inhibition of CYP2B6 (unknown origin); assay type: ADME
T1 sequence (P20813 whole entry): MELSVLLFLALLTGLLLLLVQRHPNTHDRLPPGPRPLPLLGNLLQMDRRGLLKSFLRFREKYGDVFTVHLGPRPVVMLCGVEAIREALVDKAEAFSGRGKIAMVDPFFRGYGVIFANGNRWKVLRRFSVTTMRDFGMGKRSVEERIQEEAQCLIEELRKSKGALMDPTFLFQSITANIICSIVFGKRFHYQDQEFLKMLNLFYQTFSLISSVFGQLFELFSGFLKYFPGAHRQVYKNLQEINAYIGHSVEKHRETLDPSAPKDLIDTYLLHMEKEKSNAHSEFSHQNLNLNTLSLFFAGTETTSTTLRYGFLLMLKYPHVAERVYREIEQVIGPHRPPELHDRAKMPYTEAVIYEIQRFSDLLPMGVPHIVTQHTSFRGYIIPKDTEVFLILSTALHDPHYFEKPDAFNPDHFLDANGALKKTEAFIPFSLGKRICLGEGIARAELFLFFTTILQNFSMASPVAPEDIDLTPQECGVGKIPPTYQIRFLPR

Cytochrome P450 2B6 [14] = molecular target: T1, Cytochrome P450 2B6; assay: Inhibition of CYP2B6 (unknown origin) by time dependent inhibition assay; assay type: ADME
[15] = Half life in C57 BL6 mouse at 10 mg/kg, po and 2 mg/kg, iv by LC-MS analysis; assay type: ADME, organism-based; settings: in vivo
[16] = AUC (infinity) in C57 BL6 mouse at 10 mg/kg, po by LC-MS analysis; assay type: ADME, organism-based; settings: in vivo
Mus musculus [17] = assay: In vivo anti-inflammatory activity against MSU crystal-induced gouty arthritis Balb/c mouse model assessed as reduction of volume of pouch exudate at 0.1 to 50 mg/kg, po single dose; assay type: functional, organism-based; settings: dose 0.1-50 mg/kg
Cytochrome P450 3A5 = Cytochrome P450 3A5 (Homo sapiens, UniProt P20815); assay: Inhibition of CYP3A5 (unknown origin); assay type: ADME
Cytochrome P450 2C9 = Cytochrome P450 2C9 (Homo sapiens, UniProt P11712); assay: Inhibition of CYP2C9 (unknown origin) by time dependent inhibition assay; assay type: ADME
[18] = Cytotoxicity against mouse CT26 cells measured after 72 hrs; assay type: toxicity, cell-based
[19] = Volume of distribution at steady state in Cynomolgus monkey at 5 mg/kg, po and 2 mg/kg, iv by LC-MS analysis; assay type: ADME, organism-based, Macaca fascicularis; settings: in vivo
Mus musculus [20] = assay: In vivo anti-inflammatory activity against MSU crystal-induced gouty arthritis Balb/c mouse model assessed as reduction in neutrophil recruitment in at 0.1 to 50 mg/kg, po single dose; assay type: functional, organism-based; settings: dose 0.1-50 mg/kg
[21] = Thermodynamic solubility in Simulated colon solution; assay type: physicochemical; settings: read-out: Therm_solubility
[22] = Volume of distribution at steady state in C57 BL6 mouse at 10 mg/kg, po and 2 mg/kg, iv by LC-MS analysis; assay type: ADME, organism-based; settings: in vivo
[23] = molecular target: 5-hydroxytryptamine receptor 2A (Homo sapiens) (UniProt P28223); assay: Inhibition of 5HT2A (unknown origin); settings: concentration not given here
[24] = Metabolic stability in Cynomolgus monkey hepatocytes assessed as intrinsic clearance measured per 10^6 cells; assay type: ADME, cell-based, Macaca fascicularis, Hepatocyte; settings: read-out: CLH
PBMC = assay: Antagonist activity at NLRP3 inflammasome activation in Cynomolgus monkey PBMC assessed as inhibition of LPS-stimulated IL-1beta release by measuring free concentration pretreated for 1 hr followed by induced with LPS measured after 18 hrs by HTRF analysis; assay type: cell-based; settings: Macaca fascicularis, filed as antagonist, time 19.0 hrs
[25] = Solubility of the compound in PBS at pH 7.4; assay type: physicochemical
Bile salt export pump = Bile salt export pump (Homo sapiens, UniProt O95342); assay: Inhibition of BSEP (unknown origin) assessed as reduction in uptake rate of taurocholic acid at 5 uM relative to control; assay type: toxicity
[26] = Oral bioavailability in Sprague-Dawley rat at 5 mg/kg administered through oral gavage by LC-MS analysis; assay type: ADME, organism-based; settings: in vivo
[27] = Metabolic stability in dog hepatocytes assessed as intrinsic clearance measured per 10^6 cells; assay type: ADME, cell-based, Canis lupus familiaris, Hepatocyte; settings: read-out: CLH
Cytochrome P450 2C8 = molecular target: T2, Cytochrome P450 2C8 (Homo sapiens, UniProt P10632); assay: Inhibition of CYP2C8 (unknown origin) by time dependent inhibition assay; assay type: ADME
T2 sequence (P10632 whole entry): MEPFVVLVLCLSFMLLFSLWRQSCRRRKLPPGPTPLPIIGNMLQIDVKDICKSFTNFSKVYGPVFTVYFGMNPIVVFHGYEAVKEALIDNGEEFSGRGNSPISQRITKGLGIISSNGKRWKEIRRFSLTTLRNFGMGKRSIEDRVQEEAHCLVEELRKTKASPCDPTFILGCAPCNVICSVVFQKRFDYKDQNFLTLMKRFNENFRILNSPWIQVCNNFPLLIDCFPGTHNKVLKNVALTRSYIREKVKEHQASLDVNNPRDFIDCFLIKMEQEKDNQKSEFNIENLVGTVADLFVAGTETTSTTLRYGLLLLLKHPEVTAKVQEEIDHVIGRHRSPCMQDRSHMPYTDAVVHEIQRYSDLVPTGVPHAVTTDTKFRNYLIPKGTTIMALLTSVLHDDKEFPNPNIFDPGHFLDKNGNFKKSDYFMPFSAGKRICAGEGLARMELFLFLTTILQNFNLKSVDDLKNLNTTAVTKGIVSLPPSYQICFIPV

Chain of Cytochrome P450 3A5 (P20815 whole entry): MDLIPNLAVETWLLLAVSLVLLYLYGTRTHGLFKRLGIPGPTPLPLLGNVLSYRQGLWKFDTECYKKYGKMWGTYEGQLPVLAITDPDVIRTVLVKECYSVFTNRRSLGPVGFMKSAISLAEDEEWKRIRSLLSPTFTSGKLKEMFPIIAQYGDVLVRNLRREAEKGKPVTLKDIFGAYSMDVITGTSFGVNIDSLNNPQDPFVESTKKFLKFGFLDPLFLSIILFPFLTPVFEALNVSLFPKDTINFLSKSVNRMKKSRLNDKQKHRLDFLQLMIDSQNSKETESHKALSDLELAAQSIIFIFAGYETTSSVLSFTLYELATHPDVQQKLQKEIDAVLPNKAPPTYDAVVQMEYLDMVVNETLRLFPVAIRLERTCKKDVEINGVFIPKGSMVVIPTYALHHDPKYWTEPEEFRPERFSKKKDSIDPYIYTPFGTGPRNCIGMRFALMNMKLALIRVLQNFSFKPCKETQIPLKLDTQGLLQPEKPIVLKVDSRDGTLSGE
Chain of Bile salt export pump (O95342 whole entry): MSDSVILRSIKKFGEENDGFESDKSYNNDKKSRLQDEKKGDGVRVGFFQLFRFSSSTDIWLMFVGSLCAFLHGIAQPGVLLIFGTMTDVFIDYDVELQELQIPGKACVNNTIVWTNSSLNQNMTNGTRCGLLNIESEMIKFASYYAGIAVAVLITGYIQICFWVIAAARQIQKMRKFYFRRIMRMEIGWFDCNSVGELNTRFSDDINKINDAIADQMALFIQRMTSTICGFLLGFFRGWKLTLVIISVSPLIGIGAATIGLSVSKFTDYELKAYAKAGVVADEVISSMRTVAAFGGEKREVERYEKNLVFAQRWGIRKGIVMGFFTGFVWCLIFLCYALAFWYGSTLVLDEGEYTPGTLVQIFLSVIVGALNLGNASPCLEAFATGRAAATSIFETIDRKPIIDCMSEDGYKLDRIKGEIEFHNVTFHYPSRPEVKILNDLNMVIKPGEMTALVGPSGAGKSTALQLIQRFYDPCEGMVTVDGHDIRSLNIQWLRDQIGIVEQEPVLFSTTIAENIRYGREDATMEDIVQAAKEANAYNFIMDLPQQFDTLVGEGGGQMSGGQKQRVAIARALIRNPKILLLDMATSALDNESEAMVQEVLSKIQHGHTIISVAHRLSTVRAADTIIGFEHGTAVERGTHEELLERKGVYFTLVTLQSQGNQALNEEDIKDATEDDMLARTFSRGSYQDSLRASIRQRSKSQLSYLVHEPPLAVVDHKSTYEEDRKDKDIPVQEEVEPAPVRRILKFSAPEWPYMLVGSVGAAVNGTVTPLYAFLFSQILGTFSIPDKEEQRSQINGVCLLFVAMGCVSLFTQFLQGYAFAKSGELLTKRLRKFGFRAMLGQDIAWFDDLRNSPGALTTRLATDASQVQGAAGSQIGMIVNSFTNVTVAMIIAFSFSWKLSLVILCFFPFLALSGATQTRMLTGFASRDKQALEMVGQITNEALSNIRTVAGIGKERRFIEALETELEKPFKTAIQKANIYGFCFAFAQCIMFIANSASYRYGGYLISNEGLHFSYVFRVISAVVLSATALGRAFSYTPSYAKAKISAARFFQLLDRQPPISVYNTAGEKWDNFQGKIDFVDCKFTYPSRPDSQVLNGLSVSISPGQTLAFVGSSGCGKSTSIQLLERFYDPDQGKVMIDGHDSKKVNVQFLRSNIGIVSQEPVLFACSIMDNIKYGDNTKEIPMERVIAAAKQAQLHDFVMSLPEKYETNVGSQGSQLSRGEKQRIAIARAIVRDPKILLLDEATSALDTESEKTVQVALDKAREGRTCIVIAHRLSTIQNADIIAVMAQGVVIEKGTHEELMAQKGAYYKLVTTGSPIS
Chain of Cytochrome P450 2C9 (P11712 whole entry): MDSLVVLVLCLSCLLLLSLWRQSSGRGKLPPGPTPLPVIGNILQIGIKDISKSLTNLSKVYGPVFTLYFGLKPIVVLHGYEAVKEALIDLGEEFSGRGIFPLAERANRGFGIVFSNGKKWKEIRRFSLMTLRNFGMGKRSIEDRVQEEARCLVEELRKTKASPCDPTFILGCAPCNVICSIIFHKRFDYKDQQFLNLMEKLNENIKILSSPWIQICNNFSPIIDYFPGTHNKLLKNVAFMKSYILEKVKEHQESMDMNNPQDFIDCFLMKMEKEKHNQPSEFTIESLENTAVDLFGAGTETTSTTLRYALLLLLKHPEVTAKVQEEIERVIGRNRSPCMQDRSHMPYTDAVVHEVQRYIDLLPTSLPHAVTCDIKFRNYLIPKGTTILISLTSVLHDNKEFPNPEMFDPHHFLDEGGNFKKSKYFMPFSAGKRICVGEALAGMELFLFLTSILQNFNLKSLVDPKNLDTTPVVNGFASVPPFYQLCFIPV
Chain of Voltage-gated inwardly rectifying potassium channel KCNH2 (Q12809 whole entry): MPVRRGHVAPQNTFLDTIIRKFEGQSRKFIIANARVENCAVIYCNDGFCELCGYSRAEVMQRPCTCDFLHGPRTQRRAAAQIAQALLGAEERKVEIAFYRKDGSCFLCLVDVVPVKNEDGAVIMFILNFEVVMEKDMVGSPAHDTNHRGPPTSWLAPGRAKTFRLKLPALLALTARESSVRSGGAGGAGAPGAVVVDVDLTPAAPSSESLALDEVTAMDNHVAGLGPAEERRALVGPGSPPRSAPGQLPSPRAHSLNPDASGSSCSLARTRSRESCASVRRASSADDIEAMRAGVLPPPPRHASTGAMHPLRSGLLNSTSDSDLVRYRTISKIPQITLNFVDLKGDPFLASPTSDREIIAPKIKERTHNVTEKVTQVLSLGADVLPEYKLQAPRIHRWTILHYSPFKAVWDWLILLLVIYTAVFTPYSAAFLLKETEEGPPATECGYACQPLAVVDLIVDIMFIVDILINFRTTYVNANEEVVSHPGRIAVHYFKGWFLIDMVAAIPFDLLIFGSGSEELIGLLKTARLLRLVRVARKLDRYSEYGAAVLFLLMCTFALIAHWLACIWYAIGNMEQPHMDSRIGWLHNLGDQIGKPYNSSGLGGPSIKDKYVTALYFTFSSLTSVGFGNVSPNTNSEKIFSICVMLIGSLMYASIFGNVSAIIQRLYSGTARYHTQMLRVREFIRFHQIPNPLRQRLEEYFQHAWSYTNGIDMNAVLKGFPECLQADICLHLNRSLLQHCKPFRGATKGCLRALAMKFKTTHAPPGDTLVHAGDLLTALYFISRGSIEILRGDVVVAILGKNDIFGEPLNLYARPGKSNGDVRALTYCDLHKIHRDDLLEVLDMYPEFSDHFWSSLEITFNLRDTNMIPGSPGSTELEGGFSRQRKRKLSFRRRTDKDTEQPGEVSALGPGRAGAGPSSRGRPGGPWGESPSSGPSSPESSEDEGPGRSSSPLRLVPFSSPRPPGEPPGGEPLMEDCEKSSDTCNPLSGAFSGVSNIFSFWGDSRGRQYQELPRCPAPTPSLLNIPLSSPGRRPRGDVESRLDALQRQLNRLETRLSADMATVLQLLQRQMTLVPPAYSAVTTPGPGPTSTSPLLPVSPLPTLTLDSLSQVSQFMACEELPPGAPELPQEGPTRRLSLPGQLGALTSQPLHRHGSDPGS
Chain of 5-hydroxytryptamine receptor 2A (Homo sapiens) (P28223 whole entry): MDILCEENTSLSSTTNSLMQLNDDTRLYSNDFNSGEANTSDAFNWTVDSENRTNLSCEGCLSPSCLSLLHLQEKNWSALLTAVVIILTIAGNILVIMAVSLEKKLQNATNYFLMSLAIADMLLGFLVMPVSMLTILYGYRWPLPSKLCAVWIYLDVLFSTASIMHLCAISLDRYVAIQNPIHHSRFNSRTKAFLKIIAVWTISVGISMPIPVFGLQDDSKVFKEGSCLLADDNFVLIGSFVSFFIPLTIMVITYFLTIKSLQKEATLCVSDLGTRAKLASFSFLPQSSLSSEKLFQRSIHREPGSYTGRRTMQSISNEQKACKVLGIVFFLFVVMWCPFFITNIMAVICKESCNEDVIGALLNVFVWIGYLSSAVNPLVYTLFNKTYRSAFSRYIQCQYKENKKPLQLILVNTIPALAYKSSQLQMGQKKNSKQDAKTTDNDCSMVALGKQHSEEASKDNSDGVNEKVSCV
Chain of Cytochrome P450 3A4 (P08684 whole entry): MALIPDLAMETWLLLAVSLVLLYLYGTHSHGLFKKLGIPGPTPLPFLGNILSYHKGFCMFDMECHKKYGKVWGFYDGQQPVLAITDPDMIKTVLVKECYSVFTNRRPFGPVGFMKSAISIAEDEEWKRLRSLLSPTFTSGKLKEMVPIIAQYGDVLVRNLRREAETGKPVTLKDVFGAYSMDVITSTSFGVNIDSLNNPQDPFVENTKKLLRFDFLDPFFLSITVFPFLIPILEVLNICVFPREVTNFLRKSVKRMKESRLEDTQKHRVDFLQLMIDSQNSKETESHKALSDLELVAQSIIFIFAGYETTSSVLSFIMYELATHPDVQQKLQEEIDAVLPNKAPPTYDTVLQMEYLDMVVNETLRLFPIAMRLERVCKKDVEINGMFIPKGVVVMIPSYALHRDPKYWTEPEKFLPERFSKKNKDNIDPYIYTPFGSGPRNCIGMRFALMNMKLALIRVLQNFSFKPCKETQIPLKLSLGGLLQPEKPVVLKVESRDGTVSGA

## CC(C)(O)c1ncc([S@](N)(=O)=NC(=O)Nc2c3c(cc4c2CCC4)CCC3)s1
[1]
  hepatocyte CLint: 8.4 µL/min/1e6 cells
[2]
  hepatocyte CLint: 7.5 µL/min/1e6 cells
[3]
  hepatocyte CLint: < 1.9 µL/min/1e6 cells
[4]
  bioavailability: 61%
Cytochrome P450 3A4
  IC50: > 60 µM
[5]
  solubility thermodynamic: 7.4 µg/mL (≈ 17.6 µM)
[6]
  half-life: 2.81 h
[7]
  Cmax: 21500 ng/mL
[8]
  fraction unbound: 0.012
[9]
  fraction unbound: 0.006
[10]
  IC50: > 30 µM
THP-1
  Activity: inactive
[11]
  bioavailability: 97%
[12]
  Cmax: 8860 ng/mL
Cytochrome P450 2B6 [13]
  IC50: > 60 µM
Cytochrome P450 2B6 [14]
  TDI: Not_active
[15]
  half-life: 3.9 h
[16]
  AUC(0-inf): 261 µg·h/mL
Mus musculus [17]
  Activity: Active
Cytochrome P450 3A5
  IC50: > 60 µM
Cytochrome P450 2C9
  TDI: Not_active
[18]
  EC50 at 72 h: > 100 µM
[19]
  Vdss: 0.084 L/kg
Mus musculus [20]
  Activity: Active
[21]
  solubility thermodynamic: 31.9 µg/mL (≈ 75.9 µM)
[22]
  Vdss: 0.12 L/kg
[23]
  inhibition: > 50%
[24]
  hepatocyte CLint: 4.2 µL/min/1e6 cells
PBMC
  fIC50: 1 nM
[25]
  solubility: 21 µg/mL (≈ 49.9 µM)
Bile salt export pump
  Activity: Not_active
[26]
  bioavailability: 82%
[27]
  hepatocyte CLint: < 1.9 µL/min/1e6 cells
Cytochrome P450 2C8
  TDI: Not_active
